The results in this text go back to ChEMBL document CHEMBL1275589, “Molecular epidemiology, sequence types, and plasmid analyses of KPC-producing Klebsiella pneumoniae strains in Israel” (2010).

Test [1] deals with Klebsiella pneumoniae. As to the kind of experiment: Antimicrobial activity against carbapenem-resistant KPC-2 producing Klebsiella pneumoniae 531 ST 376 expressing beta-lactamase SHV-1 by Etest. Type of test: functional.
Test [2] relates to Klebsiella pneumoniae. In words: Antimicrobial activity against KPC-3 producing Klebsiella pneumoniae 549 transformant by Etest. In kind it is functional.
For test [3], the system named is Klebsiella pneumoniae. In words: Antimicrobial activity against carbapenem-resistant KPC-2 producing Klebsiella pneumoniae 469 transformant by Etest. In kind it is functional.
Test [4] concerns Klebsiella pneumoniae. In words: Antimicrobial activity against carbapenem-resistant KPC-2 producing Klebsiella pneumoniae 531 transformant by Etest. In kind it is functional.
In test [5] the test system is Klebsiella pneumoniae. In words: Antimicrobial activity against carbapenem-resistant KPC-2 producing Klebsiella pneumoniae 526 transformant by Etest. Type of test: functional.
Test [6] relates to Klebsiella pneumoniae. As to the kind of experiment: Antimicrobial activity against carbapenem-resistant KPC-2 producing Klebsiella pneumoniae 475 ST 277 expressing beta-lactamase SHV-27, CTX-M-15 and OXA-4 by Etest. Type of test: functional.
Test [7] has as its system Klebsiella pneumoniae. As to the kind of experiment: Antimicrobial activity against carbapenem-resistant KPC-2 producing Klebsiella pneumoniae 526 ST 376 expressing beta-lactamase SHV-1 by Etest. In kind it is functional.
The test system of test [8] is Klebsiella pneumoniae. In words: Antimicrobial activity against carbapenem-resistant KPC-2 producing Klebsiella pneumoniae 523 transformant by Etest. Type of test: functional.
In test [9] the test system is Klebsiella pneumoniae. In words: Antimicrobial activity against carbapenem-resistant KPC-2 producing Klebsiella pneumoniae 365 transformant by Etest. Type of test: functional.
Test [10] deals with Klebsiella pneumoniae. As to the kind of experiment: Antimicrobial activity against carbapenem-resistant KPC-2 producing Klebsiella pneumoniae 525 transformant by Etest. In kind it is functional.
Test [11] has as its system Klebsiella pneumoniae. In words: Antimicrobial activity against carbapenem-resistant KPC-2 producing Klebsiella pneumoniae 525 ST 376 expressing beta-lactamase SHV-1 by Etest. In kind it is functional.
In test [12] the test system is Klebsiella pneumoniae. As to the kind of experiment: Antimicrobial activity against carbapenem-resistant KPC-2 producing Klebsiella pneumoniae 588 transformant by Etest. Type of test: functional.
The subject of test [13] is Klebsiella pneumoniae. In words: Antimicrobial activity against carbapenem-resistant KPC-2 producing Klebsiella pneumoniae 588 ST 340 expressing beta-lactamase TEM-1 and SHV-11 by Etest. Type of test: functional.
In test [14] the test system is Klebsiella pneumoniae. In words: Antimicrobial activity against carbapenem-resistant KPC-2 producing Klebsiella pneumoniae 475 transformant by Etest. In kind it is functional.
Test [15] deals with Klebsiella pneumoniae. In words: Antimicrobial activity against carbapenem-resistant KPC-2 producing Klebsiella pneumoniae 469 ST 277 expressing beta-lactamase SHV-27, CTX-M-15 and OXA-4 by Etest. Type of test: functional.
For test [16], the system named is Klebsiella pneumoniae. In words: Antimicrobial activity against carbapenem-resistant KPC-2 producing Klebsiella pneumoniae 523 ST 340 expressing beta-lactamase TEM-1, SHV-11 and OXA-2 by Etest. Type of test: functional.
Test [17] concerns Klebsiella pneumoniae. As to the kind of experiment: Antimicrobial activity against KPC-3 producing Klebsiella pneumoniae 557 transformant by Etest. In kind it is functional.
The test system of a further test is Escherichia coli. As to the kind of experiment: Antimicrobial activity against Escherichia coli Genehogs by Etest. In kind it is functional.
Test [18] concerns Klebsiella pneumoniae. In words: Antimicrobial activity against KPC-3 producing Klebsiella pneumoniae 549 ST 327 expressing beta-lactamase TEM-1 and CTX-M-2 by Etest. Type of test: functional.
Test [19] relates to Klebsiella pneumoniae. As to the kind of experiment: Antimicrobial activity against carbapenem-resistant KPC-2 producing Klebsiella pneumoniae 365 ST 376 expressing beta-lactamase SHV-1, CTX-M-15 and OXA-4 by Etest.
For test [20], the system named is Klebsiella pneumoniae. In words: Antimicrobial activity against KPC-3 producing Klebsiella pneumoniae 557 ST 258 expressing beta-lactamase TEM-1 by Etest.

Converted amounts (≈) assume the structure as drawn.

As to COLISTIN, the MIC – broadly, the lowest concentration that inhibits growth of the organism – with Klebsiella pneumoniae [1] turned out to be 0.125 µg/mL; against Klebsiella pneumoniae [2] it was 0.032 µg/mL; against Klebsiella pneumoniae [3], 0.032 µg/mL; in the test on Klebsiella pneumoniae [4], 0.032 µg/mL; with Klebsiella pneumoniae [5], 0.032 µg/mL; with Klebsiella pneumoniae [6] it was 0.19 µg/mL. Moreover, the MIC in the test with Klebsiella pneumoniae [7] was determined as 0.125 µg/mL; against Klebsiella pneumoniae [8], 0.047 µg/mL; with Klebsiella pneumoniae [9] it was 0.032 µg/mL; in the test on Klebsiella pneumoniae [10], 0.032 µg/mL; in the test with Klebsiella pneumoniae [11] it was 0.125 µg/mL; in the test on Klebsiella pneumoniae [12], 0.047 µg/mL. In addition, the MIC against Klebsiella pneumoniae [13] came to 0.19 µg/mL; against Klebsiella pneumoniae [14] it was 0.032 µg/mL; in the test with Klebsiella pneumoniae [15] it was 0.125 µg/mL; in the test on Klebsiella pneumoniae [16] it was 0.125 µg/mL; against Klebsiella pneumoniae [17], 0.032 µg/mL; in the test with Escherichia coli, 0.125 µg/mL. In addition, the lowest concentration to inhibit growth in the test on Klebsiella pneumoniae [18] (MIC) was 0.125 µg/mL.
For `CN(C)c1cc(NC(=O)CNC(C)(C)C)c(O)c2c1C[C@H]1C[C@H]3[C@H](N(C)C)C(O)=C(C(N)=O)C(=O)[C@@]3(O)C(O)=C1C2=O` [TIGECYCLINE], the MIC against Klebsiella pneumoniae [1] is 1.5 µg/mL (≈ 2.56 µM); against Klebsiella pneumoniae [2], 0.19 µg/mL (≈ 0.324 µM); in the test on Klebsiella pneumoniae [3], 0.125 µg/mL (≈ 0.213 µM); against Klebsiella pneumoniae [19], 1 µg/mL (≈ 1.71 µM); in the test on Klebsiella pneumoniae [20] it was 4 µg/mL (≈ 6.83 µM); in the test on Klebsiella pneumoniae [4] it was 0.125 µg/mL (≈ 0.213 µM). Further, the minimal inhibitory concentration (MIC) was 0.125 µg/mL (≈ 0.213 µM) against Klebsiella pneumoniae [5]; 4 µg/mL (≈ 6.83 µM) with Klebsiella pneumoniae [6]; 1.5 µg/mL (≈ 2.56 µM) against Klebsiella pneumoniae [7]; 0.125 µg/mL (≈ 0.213 µM) against Klebsiella pneumoniae [8]; 0.125 µg/mL (≈ 0.213 µM) against Klebsiella pneumoniae [9]; 0.125 µg/mL (≈ 0.213 µM) in the test with Klebsiella pneumoniae [10]. In addition, the MIC against Klebsiella pneumoniae [11] stood at 1 µg/mL (≈ 1.71 µM); against Klebsiella pneumoniae [12], 0.125 µg/mL (≈ 0.213 µM); with Klebsiella pneumoniae [13], 2 µg/mL (≈ 3.41 µM); in the test on Klebsiella pneumoniae [14] it was 0.125 µg/mL (≈ 0.213 µM); in the test with Klebsiella pneumoniae [15] it was 1 µg/mL (≈ 1.71 µM); with Klebsiella pneumoniae [16] it was 0.5 µg/mL (≈ 0.854 µM). Moreover, the MIC amounted to 0.125 µg/mL (≈ 0.213 µM) in the test with Klebsiella pneumoniae [17], 0.094 µg/mL (≈ 0.161 µM) in the test on Escherichia coli and 0.75 µg/mL (≈ 1.28 µM) in the test with Klebsiella pneumoniae [18].
